Results: patent US20240075182A1, “ENHANCED DERMAL PATCH FOR TREATING MENSTRUAL PAIN” (REMY BIOSCIENCES, priority 2021, published 2024)
Values belong to the compound of their own block, whether it stands above or below them.

How the values were obtained:
[1] = Saturation concentration (solubility) of CBD in PIB adhesive, CBD added until turbidity; format: physicochemical
Description: Regarding peel strength of adhesives, the inventor used judgment and estimation for preparing the patch with 26% of tackifying resin. Escorez 5400 has been used in many adhesives but not in PIB. […] The inventor estimated the peel strength of the formulation with tackifier and without tackifier, by peeling them both from the inventor's own arm skin. To obtain saturation concentration of CBD in the PIB adhesive with 26% of tackifying resin Escorez 5400 the inventor needed to add more CBD to reach turbidity. […] It was the same as the flux from PIB saturated with CBD without tackifier.
This is expected to result in thus greater flux of CBD to a patient, where the dermal patch is in contact with the skin of a patient.

[2] = Transdermal flux / transdermal delivery from PIB adhesive patch (Franz diffusion cell)
[3] = as measured at room temperature; cited from earlier work
[4] = cited from earlier work

SMILES: C=C(C)[C@@H]1CCC(C)=C[C@H]1c1c(O)cc(CCCCC)cc1O [CBD, cannabidiol]
concentration of the saturation of CBD in PIB adhesive ([1]; PIB adhesive with 26% of tackifying resin Escorez 5400, CBD added to reach turbidity): about 18%
solubility of CBD in PIB adhesive, effect of Escorez 5400 tackifier ([1]; with Escorez 5400 tackifier versus without): increased
transdermal flux of CBD ([2]; PIB adhesive with 26% Escorez 5400 saturated with CBD, versus PIB saturated with CBD without tackifier): did not increase

SMILES: O=S(=O)(O)CCNC1CCCCC1 [CHES]
pKa [3]: 9.5

SMILES: COc1cc(CNC(=O)CCCC/C=C/C(C)C)ccc1O [Capsaicin, trans-8-methyl-N-vanillyl-6-nonenamide]
water solubility [4]: not water-soluble

SMILES: O=S(=O)(O)CCN1CCN(CCS(=O)(=O)O)CC1 [PIPES]
pKa [3]: 6.8

SMILES: OB(O)O [boric acid]
pKa [3]: 9.2

transdermal delivery from PIB adhesive with enhancer ([2]; enhancer at 3% in PIB adhesive, versus PIB without enhancer): double
SMILES: CCCCCCCC/C=C\CCCCCCCC(=O)O [oleic acid]
